# PMC10770758, “Protocatechuate hydroxylase is a novel group A flavoprotein monooxygenase with a unique substrate recognition mechanism” (The Journal of Biological Chemistry, 2023)
# Assays:
# Format in all cases: binding
# OtPobA = biological target: T1, OtPobA (Ottowia thiooxydans, UniProt A0ABV2Q8W8); assay: HPLC of heat-released flavin; absorption spectrum; conditions: prosthetic group
# T1 construct: gene ABIE13_002600; codon-optimised gene in modified pET28a, His-tagged, E. coli BL21 Star (DE3), HisTrap
# T1 sequence (A0ABV2Q8W8 1-392): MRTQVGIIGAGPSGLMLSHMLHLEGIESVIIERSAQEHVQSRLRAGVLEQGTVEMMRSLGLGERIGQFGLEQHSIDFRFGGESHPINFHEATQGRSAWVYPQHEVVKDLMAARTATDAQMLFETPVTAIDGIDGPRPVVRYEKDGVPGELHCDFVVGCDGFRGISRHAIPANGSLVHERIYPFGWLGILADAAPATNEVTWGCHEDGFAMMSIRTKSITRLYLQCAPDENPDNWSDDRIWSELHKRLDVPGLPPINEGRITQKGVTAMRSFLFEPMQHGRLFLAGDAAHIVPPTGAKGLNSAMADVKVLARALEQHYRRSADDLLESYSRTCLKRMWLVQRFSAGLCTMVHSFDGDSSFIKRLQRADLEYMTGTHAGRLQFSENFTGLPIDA
# XaPobA = biological target: T2, XaPobA (Xylophilus ampelinus, UniProt A0AAJ6N6I2); assay: X-ray crystal structure; HPLC of heat-released flavin; conditions: oxidized form, prosthetic group
# T2 construct: gene praI; codon-optimised gene in modified pET28a, 6xHis tag, E. coli BL21 Star (DE3), HisTrap; homodimer in crystal
# T2 sequence (A0AAJ6N6I2 1-391): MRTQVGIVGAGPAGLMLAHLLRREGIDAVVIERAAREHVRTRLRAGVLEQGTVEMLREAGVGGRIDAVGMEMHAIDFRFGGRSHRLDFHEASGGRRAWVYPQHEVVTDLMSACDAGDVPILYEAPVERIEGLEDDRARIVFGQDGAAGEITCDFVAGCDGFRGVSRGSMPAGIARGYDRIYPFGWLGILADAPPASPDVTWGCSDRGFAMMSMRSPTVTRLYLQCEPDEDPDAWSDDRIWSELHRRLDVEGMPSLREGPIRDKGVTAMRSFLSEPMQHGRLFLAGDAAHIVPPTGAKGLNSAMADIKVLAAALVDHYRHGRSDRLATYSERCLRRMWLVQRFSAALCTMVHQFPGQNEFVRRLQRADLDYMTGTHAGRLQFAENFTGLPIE
# PkPobA = biological target: T3, PkPobA (Pigmentiphaga kullae, UniProt A0A4Q7NA79); assay: HPLC of heat-released flavin; absorption spectrum; conditions: prosthetic group
# T3 construct: gene EV675_5624; codon-optimised gene in modified pET28a, His-tagged, E. coli BL21 Star (DE3), HisTrap
# T3 sequence (A0A4Q7NA79 1-391): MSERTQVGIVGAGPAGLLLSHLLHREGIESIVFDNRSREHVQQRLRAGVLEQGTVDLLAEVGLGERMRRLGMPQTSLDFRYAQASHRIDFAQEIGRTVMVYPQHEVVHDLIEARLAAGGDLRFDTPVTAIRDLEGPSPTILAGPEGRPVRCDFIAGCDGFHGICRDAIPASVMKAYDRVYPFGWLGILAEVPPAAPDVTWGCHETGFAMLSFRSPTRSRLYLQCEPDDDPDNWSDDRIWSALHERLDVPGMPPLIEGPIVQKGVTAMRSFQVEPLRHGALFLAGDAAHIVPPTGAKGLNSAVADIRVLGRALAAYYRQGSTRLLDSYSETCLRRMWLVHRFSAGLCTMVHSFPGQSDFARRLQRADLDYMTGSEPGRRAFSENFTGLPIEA
smiles,measurement,setting,value
"Cc1cc2nc3c(=O)[nH]c(=O)nc-3n(C[C@H](O)[C@H](O)[C@H](O)COP(=O)(O)OP(=O)(O)OC[C@H]3O[C@@H](n4cnc5c(N)ncnc54)[C@H](O)[C@@H]3O)c2cc1C [FAD, flavin adenine dinucleotide]",HPLC of heat-released flavin; absorption spectrum,OtPobA,"indicating that XaPobA, OtPobA, and PkPobA use FAD as a prosthetic group"
same,X-ray crystal structure; HPLC of heat-released flavin,XaPobA,"homodimer, with each unit binding an oxidized form of FAD in its active site"
same,HPLC of heat-released flavin; absorption spectrum,PkPobA,"indicating that XaPobA, OtPobA, and PkPobA use FAD as a prosthetic group"
